ChEMBL document CHEMBL3991601, “The target landscape of clinical kinase drugs” (Science, 2017)
The source made the active and inactive calls.

Tests used:
[1] = molecular target: T1, Eukaryotic translation initiation factor 5B (Homo sapiens, UniProt O60841)
T1 sequence (O60841 whole entry): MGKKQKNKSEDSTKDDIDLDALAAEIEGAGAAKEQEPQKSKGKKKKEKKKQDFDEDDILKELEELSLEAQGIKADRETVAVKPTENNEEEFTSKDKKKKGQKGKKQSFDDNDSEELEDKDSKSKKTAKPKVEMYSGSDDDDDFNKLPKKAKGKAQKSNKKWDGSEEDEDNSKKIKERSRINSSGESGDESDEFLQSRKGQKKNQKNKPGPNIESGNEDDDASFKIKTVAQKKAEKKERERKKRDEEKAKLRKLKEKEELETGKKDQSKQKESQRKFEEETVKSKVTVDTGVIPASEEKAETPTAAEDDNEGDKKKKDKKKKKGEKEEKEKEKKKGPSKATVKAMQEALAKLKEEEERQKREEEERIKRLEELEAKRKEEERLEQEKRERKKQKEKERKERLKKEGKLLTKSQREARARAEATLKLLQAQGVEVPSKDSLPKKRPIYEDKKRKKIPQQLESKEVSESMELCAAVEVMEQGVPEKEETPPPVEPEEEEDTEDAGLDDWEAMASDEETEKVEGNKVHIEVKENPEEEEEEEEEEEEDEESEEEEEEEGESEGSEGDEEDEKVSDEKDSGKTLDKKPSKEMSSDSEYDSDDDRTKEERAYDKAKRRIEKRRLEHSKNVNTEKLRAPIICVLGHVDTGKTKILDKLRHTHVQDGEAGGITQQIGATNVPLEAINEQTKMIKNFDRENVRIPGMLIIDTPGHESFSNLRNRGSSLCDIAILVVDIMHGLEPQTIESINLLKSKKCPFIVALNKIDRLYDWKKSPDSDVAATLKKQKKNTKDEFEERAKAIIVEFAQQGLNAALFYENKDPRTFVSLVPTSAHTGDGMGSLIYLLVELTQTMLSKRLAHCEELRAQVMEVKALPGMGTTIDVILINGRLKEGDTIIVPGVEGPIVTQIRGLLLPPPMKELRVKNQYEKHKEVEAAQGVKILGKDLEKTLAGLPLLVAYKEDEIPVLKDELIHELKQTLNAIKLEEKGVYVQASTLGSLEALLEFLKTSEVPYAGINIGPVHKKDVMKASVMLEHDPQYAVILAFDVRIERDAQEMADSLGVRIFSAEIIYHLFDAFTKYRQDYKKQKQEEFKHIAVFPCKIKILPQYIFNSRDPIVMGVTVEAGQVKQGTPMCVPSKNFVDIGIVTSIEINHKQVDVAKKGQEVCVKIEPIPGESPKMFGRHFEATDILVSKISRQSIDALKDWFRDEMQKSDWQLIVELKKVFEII

Ephrin type-A receptor 7 = Ephrin type-A receptor 7 (Homo sapiens, UniProt Q15375)
Chain of Ephrin type-A receptor 7 (Q15375 whole entry): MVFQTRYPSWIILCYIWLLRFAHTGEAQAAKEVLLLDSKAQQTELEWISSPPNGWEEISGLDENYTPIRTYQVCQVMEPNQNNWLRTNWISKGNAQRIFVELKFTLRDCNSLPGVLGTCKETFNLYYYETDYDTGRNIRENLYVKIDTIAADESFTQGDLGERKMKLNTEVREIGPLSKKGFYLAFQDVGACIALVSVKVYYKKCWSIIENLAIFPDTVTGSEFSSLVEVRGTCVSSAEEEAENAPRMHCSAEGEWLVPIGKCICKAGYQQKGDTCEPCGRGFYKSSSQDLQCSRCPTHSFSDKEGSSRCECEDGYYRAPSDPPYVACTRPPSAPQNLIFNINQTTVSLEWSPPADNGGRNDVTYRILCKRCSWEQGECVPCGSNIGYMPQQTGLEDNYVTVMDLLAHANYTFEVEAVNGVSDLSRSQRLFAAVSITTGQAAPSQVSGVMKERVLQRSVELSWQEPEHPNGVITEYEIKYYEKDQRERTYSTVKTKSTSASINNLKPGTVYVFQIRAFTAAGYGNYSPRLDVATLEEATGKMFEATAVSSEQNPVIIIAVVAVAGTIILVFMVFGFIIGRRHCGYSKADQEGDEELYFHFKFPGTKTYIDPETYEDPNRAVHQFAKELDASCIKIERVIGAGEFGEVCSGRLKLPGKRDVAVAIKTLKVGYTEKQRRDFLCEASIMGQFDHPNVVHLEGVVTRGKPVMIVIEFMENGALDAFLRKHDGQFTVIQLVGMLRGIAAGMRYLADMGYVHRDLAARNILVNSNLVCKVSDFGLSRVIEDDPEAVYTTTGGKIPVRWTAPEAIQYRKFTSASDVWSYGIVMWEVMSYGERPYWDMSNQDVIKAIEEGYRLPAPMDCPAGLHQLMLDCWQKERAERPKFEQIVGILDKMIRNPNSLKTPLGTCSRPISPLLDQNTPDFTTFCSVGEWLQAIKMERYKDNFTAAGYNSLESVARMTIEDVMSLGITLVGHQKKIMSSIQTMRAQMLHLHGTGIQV

[2] = molecular target: Dual specificity testis-specific protein kinase 1 (Homo sapiens, UniProt Q15569)
Chain of Dual specificity testis-specific protein kinase 1 (Q15569 whole entry): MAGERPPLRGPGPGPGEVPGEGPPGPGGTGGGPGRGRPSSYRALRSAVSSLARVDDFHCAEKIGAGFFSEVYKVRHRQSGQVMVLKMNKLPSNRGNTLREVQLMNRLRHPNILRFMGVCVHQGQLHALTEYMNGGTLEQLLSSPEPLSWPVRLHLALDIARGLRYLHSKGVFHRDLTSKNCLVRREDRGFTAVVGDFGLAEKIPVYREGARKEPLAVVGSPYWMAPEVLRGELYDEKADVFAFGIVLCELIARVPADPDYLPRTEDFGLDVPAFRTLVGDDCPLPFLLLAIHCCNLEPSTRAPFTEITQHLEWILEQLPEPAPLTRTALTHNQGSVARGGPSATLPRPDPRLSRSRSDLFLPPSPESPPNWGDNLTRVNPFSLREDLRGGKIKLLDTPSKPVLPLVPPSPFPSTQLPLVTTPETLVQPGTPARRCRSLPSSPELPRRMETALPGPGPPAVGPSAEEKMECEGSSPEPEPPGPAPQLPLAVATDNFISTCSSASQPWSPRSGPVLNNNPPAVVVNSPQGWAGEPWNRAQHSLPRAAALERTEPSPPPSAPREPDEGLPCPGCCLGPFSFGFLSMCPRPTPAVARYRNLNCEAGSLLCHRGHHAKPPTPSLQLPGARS

Obg-like ATPase 1 = Obg-like ATPase 1 (Homo sapiens, UniProt Q9NTK5)
Chain of Obg-like ATPase 1 (Q9NTK5 whole entry, looked up): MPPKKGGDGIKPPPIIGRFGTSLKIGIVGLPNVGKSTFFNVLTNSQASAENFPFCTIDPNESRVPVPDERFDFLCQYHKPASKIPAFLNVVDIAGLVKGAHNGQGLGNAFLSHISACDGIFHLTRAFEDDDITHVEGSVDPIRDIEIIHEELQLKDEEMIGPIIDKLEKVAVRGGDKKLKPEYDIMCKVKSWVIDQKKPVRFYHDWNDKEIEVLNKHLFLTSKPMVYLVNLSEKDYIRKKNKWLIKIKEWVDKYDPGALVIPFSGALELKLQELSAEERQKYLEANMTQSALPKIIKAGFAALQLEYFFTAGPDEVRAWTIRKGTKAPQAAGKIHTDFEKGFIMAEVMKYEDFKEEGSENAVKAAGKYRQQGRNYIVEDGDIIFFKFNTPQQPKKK

[3] = molecular target: Serine/threonine-protein kinase N3 (Homo sapiens, UniProt Q6P5Z2)
Chain of Serine/threonine-protein kinase N3 (Q6P5Z2 whole entry): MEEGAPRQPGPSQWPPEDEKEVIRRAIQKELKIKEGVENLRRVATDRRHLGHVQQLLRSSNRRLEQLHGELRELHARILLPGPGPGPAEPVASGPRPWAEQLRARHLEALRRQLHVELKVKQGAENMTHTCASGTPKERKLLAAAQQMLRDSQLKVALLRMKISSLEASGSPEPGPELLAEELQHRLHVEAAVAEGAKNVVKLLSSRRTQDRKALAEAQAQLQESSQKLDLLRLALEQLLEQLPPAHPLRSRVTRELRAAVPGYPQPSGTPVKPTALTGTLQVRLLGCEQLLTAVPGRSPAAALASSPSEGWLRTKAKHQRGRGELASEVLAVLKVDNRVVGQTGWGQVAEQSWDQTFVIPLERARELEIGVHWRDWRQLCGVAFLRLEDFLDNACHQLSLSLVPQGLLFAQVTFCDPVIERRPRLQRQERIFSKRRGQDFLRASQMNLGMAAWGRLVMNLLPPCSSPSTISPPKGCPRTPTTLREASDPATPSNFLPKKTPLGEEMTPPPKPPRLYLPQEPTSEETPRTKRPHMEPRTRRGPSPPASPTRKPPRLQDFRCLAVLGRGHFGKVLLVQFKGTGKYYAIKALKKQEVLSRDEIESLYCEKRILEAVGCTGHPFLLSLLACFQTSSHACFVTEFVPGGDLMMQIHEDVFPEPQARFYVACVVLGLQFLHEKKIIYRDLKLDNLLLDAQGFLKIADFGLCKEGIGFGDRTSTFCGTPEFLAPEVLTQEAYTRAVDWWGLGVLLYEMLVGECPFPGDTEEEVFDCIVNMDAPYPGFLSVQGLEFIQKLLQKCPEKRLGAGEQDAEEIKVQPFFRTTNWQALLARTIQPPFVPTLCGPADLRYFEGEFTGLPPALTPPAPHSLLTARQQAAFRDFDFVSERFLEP

Myosin-10 = Myosin-10 (Homo sapiens, UniProt P35580)
Chain of Myosin-10 (P35580 whole entry): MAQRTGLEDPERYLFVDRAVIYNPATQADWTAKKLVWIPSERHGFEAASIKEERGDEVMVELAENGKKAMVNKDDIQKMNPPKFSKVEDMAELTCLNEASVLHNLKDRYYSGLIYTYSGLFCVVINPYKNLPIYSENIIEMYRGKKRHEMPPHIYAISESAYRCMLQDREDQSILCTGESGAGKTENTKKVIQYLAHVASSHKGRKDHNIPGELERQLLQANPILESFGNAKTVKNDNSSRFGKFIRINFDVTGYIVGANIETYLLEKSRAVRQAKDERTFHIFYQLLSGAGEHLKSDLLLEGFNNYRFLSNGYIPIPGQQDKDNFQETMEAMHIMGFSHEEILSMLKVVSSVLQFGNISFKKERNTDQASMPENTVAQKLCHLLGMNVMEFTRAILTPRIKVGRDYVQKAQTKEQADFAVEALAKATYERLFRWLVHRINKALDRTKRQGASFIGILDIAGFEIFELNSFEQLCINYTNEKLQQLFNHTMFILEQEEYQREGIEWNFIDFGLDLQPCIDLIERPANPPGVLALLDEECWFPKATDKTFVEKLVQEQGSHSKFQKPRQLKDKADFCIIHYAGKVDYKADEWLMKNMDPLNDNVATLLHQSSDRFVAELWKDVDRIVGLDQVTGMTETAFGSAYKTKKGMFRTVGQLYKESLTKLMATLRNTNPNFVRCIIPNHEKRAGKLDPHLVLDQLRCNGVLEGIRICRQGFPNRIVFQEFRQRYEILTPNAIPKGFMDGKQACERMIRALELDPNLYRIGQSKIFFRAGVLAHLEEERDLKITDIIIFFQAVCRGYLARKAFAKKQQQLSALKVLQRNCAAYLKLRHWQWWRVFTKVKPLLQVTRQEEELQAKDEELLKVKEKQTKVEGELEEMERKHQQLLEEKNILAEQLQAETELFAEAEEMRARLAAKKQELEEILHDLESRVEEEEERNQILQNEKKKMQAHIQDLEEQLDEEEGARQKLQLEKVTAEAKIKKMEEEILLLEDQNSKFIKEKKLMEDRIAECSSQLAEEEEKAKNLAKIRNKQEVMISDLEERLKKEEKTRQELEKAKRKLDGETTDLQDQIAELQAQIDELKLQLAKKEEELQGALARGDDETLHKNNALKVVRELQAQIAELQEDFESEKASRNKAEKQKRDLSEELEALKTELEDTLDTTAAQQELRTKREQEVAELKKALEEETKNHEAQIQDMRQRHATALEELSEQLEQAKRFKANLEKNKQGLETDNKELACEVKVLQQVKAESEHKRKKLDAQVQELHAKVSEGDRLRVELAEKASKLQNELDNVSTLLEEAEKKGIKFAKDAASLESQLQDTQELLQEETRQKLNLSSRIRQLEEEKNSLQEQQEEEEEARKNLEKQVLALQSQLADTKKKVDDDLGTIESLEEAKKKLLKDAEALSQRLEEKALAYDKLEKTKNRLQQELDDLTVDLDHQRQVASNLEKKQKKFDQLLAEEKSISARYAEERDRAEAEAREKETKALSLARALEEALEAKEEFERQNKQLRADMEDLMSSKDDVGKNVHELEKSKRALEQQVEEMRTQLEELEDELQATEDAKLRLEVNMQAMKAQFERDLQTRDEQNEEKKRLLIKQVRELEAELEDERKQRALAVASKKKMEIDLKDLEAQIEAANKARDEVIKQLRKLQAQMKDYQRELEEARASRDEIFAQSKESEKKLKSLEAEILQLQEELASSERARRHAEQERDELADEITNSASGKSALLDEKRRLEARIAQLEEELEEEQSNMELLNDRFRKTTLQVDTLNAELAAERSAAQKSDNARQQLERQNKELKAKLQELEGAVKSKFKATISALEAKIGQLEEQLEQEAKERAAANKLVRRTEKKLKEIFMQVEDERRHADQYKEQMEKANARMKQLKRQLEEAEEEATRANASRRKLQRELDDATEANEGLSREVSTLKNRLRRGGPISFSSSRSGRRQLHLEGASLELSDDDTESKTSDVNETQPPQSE

[4] = molecular target: T2, Thyroid hormone receptor-associated protein 3 (Homo sapiens, UniProt Q9Y2W1)
T2 sequence (Q9Y2W1 whole entry): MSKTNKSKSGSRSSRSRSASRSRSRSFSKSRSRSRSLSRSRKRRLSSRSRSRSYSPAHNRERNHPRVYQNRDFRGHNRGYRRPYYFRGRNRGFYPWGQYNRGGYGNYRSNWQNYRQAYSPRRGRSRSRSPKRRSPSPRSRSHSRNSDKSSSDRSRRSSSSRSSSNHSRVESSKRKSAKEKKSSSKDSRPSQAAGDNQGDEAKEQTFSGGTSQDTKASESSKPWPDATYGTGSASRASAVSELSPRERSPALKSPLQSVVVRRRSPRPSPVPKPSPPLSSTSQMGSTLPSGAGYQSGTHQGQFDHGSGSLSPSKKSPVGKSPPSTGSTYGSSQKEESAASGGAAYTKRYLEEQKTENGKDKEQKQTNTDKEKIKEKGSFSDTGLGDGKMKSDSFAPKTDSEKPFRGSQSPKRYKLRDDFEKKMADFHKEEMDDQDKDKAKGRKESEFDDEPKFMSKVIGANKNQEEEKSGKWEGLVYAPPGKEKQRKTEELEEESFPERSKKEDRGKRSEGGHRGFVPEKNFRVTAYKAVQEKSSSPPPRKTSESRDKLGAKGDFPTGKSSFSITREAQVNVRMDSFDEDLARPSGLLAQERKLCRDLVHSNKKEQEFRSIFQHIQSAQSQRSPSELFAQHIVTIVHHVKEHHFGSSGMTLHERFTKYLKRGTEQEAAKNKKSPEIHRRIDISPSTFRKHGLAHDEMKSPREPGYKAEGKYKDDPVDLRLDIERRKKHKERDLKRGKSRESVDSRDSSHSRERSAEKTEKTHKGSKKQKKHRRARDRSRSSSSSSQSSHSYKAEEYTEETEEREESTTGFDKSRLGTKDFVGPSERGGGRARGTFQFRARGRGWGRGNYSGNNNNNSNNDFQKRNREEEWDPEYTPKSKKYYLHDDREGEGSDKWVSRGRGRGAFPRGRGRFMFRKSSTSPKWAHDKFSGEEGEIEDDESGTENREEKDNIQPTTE

Measured: Kd
Further: in the data inactive means no Kd found up to 30 µM.

Cn1ncc(Cl)c1-c1cc(C(=O)N[C@H](CN)Cc2cccc(F)c2)sc1Cl [AFURESERTIB]
inactive: [1] > 30 µM | Ephrin type-A receptor 7 > 30 µM | [2] > 30 µM

CN(C)C(=O)c1cc2cnc(Nc3ccc(N4CCNCC4)cn3)nc2n1C1CCCC1 [RIBOCICLIB]
inactive: [1] > 30 µM | Ephrin type-A receptor 7 > 30 µM | Obg-like ATPase 1 > 30 µM | [2] > 30 µM

C[C@@H]1CN(Cc2ccc(F)cc2)[C@@H](C)CN1C(=O)c1cc2c(C(=O)C(=O)N(C)C)cn(C)c2cc1Cl [TALMAPIMOD]
inactive: Ephrin type-A receptor 7 > 30 µM | Obg-like ATPase 1 > 30 µM | [3] > 30 µM | [2] > 30 µM

COc1cc2nccc(Oc3ccc(NC(=O)NC4CC4)c(Cl)c3)c2cc1C(N)=O [LENVATINIB]
inactive: [1] > 30 µM | Myosin-10 > 30 µM | Obg-like ATPase 1 > 30 µM | [3] > 30 µM | [2] > 30 µM | [4] > 30 µM

CN1CCN(c2ccc3nc(-c4c(N)c5c(F)cccc5[nH]c4=O)[nH]c3c2)CC1 [DOVITINIB]
inactive: Myosin-10 > 30 µM | Obg-like ATPase 1 > 30 µM

COC(=O)N[C@@H](C)CNc1nccc(-c2cn(C(C)C)nc2-c2cc(Cl)cc(NS(C)(=O)=O)c2F)n1 [ENCORAFENIB]
inactive: [1] > 30 µM | Ephrin type-A receptor 7 > 30 µM | Myosin-10 > 30 µM | Obg-like ATPase 1 > 30 µM | [3] > 30 µM | [4] > 30 µM

Cc1cc(Nc2cc(N3CCN(C)CC3)nc(/C=C/c3ccccc3)n2)n[nH]1 [ENMD-2076]
inactive: [1] > 30 µM | Myosin-10 > 30 µM | Obg-like ATPase 1 > 30 µM | [2] > 30 µM | [4] > 30 µM

Cn1cc(-c2ccc(F)c(C(F)(F)F)c2)nc1C1CCN(c2ncnc3[nH]ncc23)CC1 [LY-2584702]
inactive: [1] > 30 µM | Ephrin type-A receptor 7 > 30 µM | Obg-like ATPase 1 > 30 µM | [2] > 30 µM | [4] > 30 µM

CNC(=O)CN1CCC(Oc2cc3c(Nc4cccc(Cl)c4F)ncnc3cc2OC)CC1 [SAPITINIB]
inactive: [1] > 30 µM | Ephrin type-A receptor 7 > 30 µM | [3] > 30 µM | [2] > 30 µM

CNC(=O)c1ccc(C)c(-n2c(C)cc(OCc3ccc(F)cc3F)c(Br)c2=O)c1 [PH-797804]
inactive: [1] > 30 µM | [3] > 30 µM | [2] > 30 µM

CCn1c(-c2nonc2N)nc2c(C#CC(C)(C)O)ncc(OC[C@H]3CCCNC3)c21 [GSK-690693]
inactive: Obg-like ATPase 1 > 30 µM | [4] > 30 µM

O=C(Nc1cccc(Cl)c1)Nc1ncc(CCNc2ncnc3ccsc23)s1 [SNS-314]
inactive: [1] > 30 µM | Ephrin type-A receptor 7 > 30 µM | Myosin-10 > 30 µM | Obg-like ATPase 1 > 30 µM | [3] > 30 µM | [4] > 30 µM

C1=C/COCc2cc(ccc2OCCN2CCCC2)Nc2nccc(n2)-c2cccc(c2)COC/1 [PACRITINIB]
inactive: [1] > 30 µM | Ephrin type-A receptor 7 > 30 µM | Myosin-10 > 30 µM | Obg-like ATPase 1 > 30 µM | [4] > 30 µM

CNC(=O)c1ccc(-c2cnc3ncc(Cc4ccc5ncccc5c4)n3n2)cc1F [CAPMATINIB]
inactive: Ephrin type-A receptor 7 > 30 µM | Myosin-10 > 30 µM | Obg-like ATPase 1 > 30 µM | [3] > 30 µM | [2] > 30 µM

C[C@@H](c1ccc2nccn2c1)n1nnc2ncc(-c3cnn(C)c3)nc21 [SAVOLITINIB]
inactive: [1] > 30 µM | [2] > 30 µM | [4] > 30 µM

Cc1cn(-c2cc(NC(=O)c3ccc(C)c(Nc4nccc(-c5cccnc5)n4)c3)cc(C(F)(F)F)c2)cn1 [NILOTINIB]
inactive: [1] > 30 µM | Myosin-10 > 30 µM | Obg-like ATPase 1 > 30 µM | [3] > 30 µM | [4] > 30 µM

Nc1nc(N)c2nc(-c3cccc(O)c3)c(-c3cccc(O)c3)nc2n1 [TG100-115]
inactive: [1] > 30 µM | Obg-like ATPase 1 > 30 µM | [3] > 30 µM | [4] > 30 µM

Cc1cc2c(F)c(Oc3ncnn4cc(OC[C@@H](C)OC(=O)[C@H](C)N)c(C)c34)ccc2[nH]1 [BRIVANIB ALANINATE]
inactive: Ephrin type-A receptor 7 > 30 µM | Myosin-10 > 30 µM | [3] > 30 µM | [2] > 30 µM | [4] > 30 µM

CN1N=C(N)c2cn([C@@H]3O[C@H](COP(=O)(O)O)[C@@H](O)[C@H]3O)c3ncnc1c23 [TRICIRIBINE PHOSPHATE]
inactive: [1] > 30 µM | Myosin-10 > 30 µM | Obg-like ATPase 1 > 30 µM | [4] > 30 µM

COC(=O)[C@@]1(O)C[C@H]2O[C@]1(C)n1c3ccccc3c3c4c(c5c6ccccc6n2c5c31)C(=O)NC4 [K-252A]
inactive: [1] > 30 µM | Ephrin type-A receptor 7 > 30 µM | [3] > 30 µM | [2] > 30 µM | [4] > 30 µM

CCS(=O)(=O)N1CC(CC#N)(n2cc(-c3ncnc4[nH]ccc34)cn2)C1 [BARICITINIB]
inactive: [1] > 30 µM | Ephrin type-A receptor 7 > 30 µM | Myosin-10 > 30 µM | Obg-like ATPase 1 > 30 µM | [2] > 30 µM | [4] > 30 µM

Cc1nc(N)sc1-c1ccnc(Nc2ccc(N3CCOCC3)cc2)n1 [CYC-116]
inactive: [1] > 30 µM | Myosin-10 > 30 µM | Obg-like ATPase 1 > 30 µM | [3] > 30 µM | [4] > 30 µM

COc1cc(N2CCC(N3CCN(C)CC3)CC2)ccc1Nc1ncnc(Nc2ccccc2S(=O)(=O)C(C)C)n1 [ASP-3026]
inactive: [1] > 30 µM | Ephrin type-A receptor 7 > 30 µM | [2] > 30 µM | [4] > 30 µM

O=c1sn(-c2cccc3ccccc23)c(=O)n1Cc1ccccc1 [TIDEGLUSIB]
inactive: Ephrin type-A receptor 7 > 30 µM | Obg-like ATPase 1 > 30 µM | [3] > 30 µM | [2] > 30 µM | [4] > 30 µM

CNS(=O)(=O)Nc1nccc(Cc2c(C)c3ccc(Oc4ncccn4)cc3oc2=O)c1F [AVUTOMETINIB]
inactive: [1] > 30 µM | Ephrin type-A receptor 7 > 30 µM | Myosin-10 > 30 µM | Obg-like ATPase 1 > 30 µM | [3] > 30 µM | [4] > 30 µM

C[C@@H](Nc1cc(F)cc(F)c1)c1cc(C(=O)N(C)C)cc2c(=O)cc(N3CCOCC3)oc12 [AZD-8186]
inactive: Ephrin type-A receptor 7 > 30 µM | [2] > 30 µM

C=CC(=O)N1CCC(Oc2cc3c(Nc4ccc(Cl)c(Cl)c4F)ncnc3cc2OC)CC1 [POZIOTINIB]
inactive: [1] > 30 µM | Ephrin type-A receptor 7 > 30 µM | Obg-like ATPase 1 > 30 µM | [2] > 30 µM
